Data on three compounds can be found in US4055640A, “Compositions and methods for controlling the growth of bacteria, fungi and algae using certain derivatives of N-(2,2-dichlorovinyl)salicylamides” (Nippon Kayaku Co., Ltd., priority 1975, dated 1977).

The subject of data set [1] is Penicillium Citrinum. The data set can be described thus: Region of growth-inhibition around treated cotton cloth (Example 26). It is filed as cell-based. Particulars: emulsifiable concentrate diluted 100 times. On the procedure:
(§1) The emulsifiable concentrates which were prepared by Example 20 were diluted with water 100 times to form an emulsion. A cloth of cotton was soaked into each emulsion for 2 minutes. The clothes were dried at room temperature and cut into a square of which a side was 1 cm long. Each kind of test bacteria and fungi was inoculated, separately, on plates of potato-agar and one square cloth placed on each of such plates. Test bacteria and fungi were cultivated at 28° C for 4 days. The width of the region of growth-inhibition which was formed a circumference of the cloth was measured.

Data set [2] has as its system Aspergillus niger. The data set is described as above. It is filed as cell-based. To be noted: emulsifiable concentrate diluted 100 times. As to the method:
as §1

Data set [3] deals with Bacillus subtilis. Described as above. It is filed as cell-based. Particulars: emulsifiable concentrate diluted 100 times. As to the method: as §1
For another data set, the system named is Staphylococcus oureus. Described as above. It is filed as cell-based. Particulars: emulsifiable concentrate diluted 100 times. As to the method:
as §1

Data set [4] concerns Penicillium Citrinum. The data set can be described thus: Minimum inhibitory amount, dilution methods (Example 24). Particulars: (1) potato-dextrose agar dilution method. The class given is cell-based. The source says:
(§2) Bactericidal activity and fungicidal activity of the active compounds of the present invention were examined by potato-dextrose agar dilution method, or [2] glucose bouillon medium dilution method. The results are shown in Table 10 below as the minimum inhibitory concentration (the minimum concentration of active compound found to produce 100% control of the test bacteria and fungi).

Data set [5] relates to Aspergillus niger. The data set is described as above. The class given is cell-based. To be noted: (1) potato-dextrose agar dilution method.
From the text: as §2
Background: In agar dilution, organisms are placed on agar that contains the substance at set levels.

The test system of data set [6] is Staphylococcus aureus. Described as above. It is filed as cell-based. To be noted: (2) glucose bouillon medium dilution method.
From the text: as §2

Data set [7] relates to Cladosporium harbarum. Described as above. It is filed as cell-based. Particulars: (1) potato-dextrose agar dilution method.
From the text: as §2

For data set [8], the system named is Escherichia coli. Described as above. The class given is cell-based. Particulars: (2) glucose bouillon medium dilution method.
From the text: as §2

The subject of data set [9] is Bacillus subtilis. The data set is described as above. The class given is cell-based. Particulars: (2) glucose bouillon medium dilution method.
From the text: as §2

The test system of data set [10] is Xanthomonas citri (citrus canker). The data set can be described thus: Exterminating test on citrus canker (Experimental Example 6). To be noted: 1,000 ppm, 2 weeks after inoculation. The class given is in vivo. As to the method: Exterminating test on citrus canker. 4-year-old summer orange seedlings, planted in unglazed pots having a diameter of 20 cm, were employed in this test. Eighty percent (80%) wettable powder of the present invention was diluted with water, and sprayed over the seedlings in an amount of 50 ml per pot. The leaves of the seedlings were inoculated Xanthomonas citri by means of a needle. After the inoculation, the seedlings were maintained in a moist chamber at 25° C for 24 hours. Then the pots were transferred into the greenhouse. Streptomycin 20% wettable powder was used as a control, and tested by the same method. After 2 weeks after the inoculation, degrees of disease attack were observed, and an "Effect Index" was calculated as follows: [formula]

The subject of data set [11] is cucumber seedlings (variety: Sagamihanjiro). The data set can be described thus: Phytotoxicity on cucumber seedlings (Experimental Example 2). Particulars: 500 ppm. The class given is in vivo. As to the method: (§3) The cucumber seeds (variety: Sagamihanjiro) were sown in pots (diameter 18 cm). Eighty percent (80%) wettable powder (contents of active compound: 80%) of the present invention was diluted with water to obtain a suspension. The suspension was sprayed over the cucumber seedlings of the stage of 3-4 leaves in an amount of 20 ml per pot. After 24 hours, these pots were inoculated by means of spray of spore suspension of Cladosporium cucumerinum. The thus-inoculated seedlings were placed in a moist chamber at 20° C for 24 hours. The pots were continuously kept in a greenhouse at 20° C. The following wettable powders on the market were used as controls.

In data set [12] the test system is Rhizoctonia solani (damping-off of cucumber). The data set can be described thus: Exterminating test on damping-off of cucumber (Experimental Example 3). It is filed as in vivo. To be noted: 1,000 ppm, soil drench 50 ml per pot, 10 days. The procedure, abridged:
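Percentage of healthy seedlings was scored 10 days post inoculation, with PCNB 50% wettable powder run alongside as reference. Each pot held 10 Azumamidori cucumber seeds in field soil carrying 5 g Rhizoctonia solani. Soil drench: 50 ml water suspension of 80% wettable powder; greenhouse.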

A further data set concerns summer orange seedlings. The data set can be described thus: Phytotoxicity on summer orange seedlings (Experimental Example 6). It is filed as in vivo. Particulars: 1,000 ppm.
The subject of data set [13] is Aspergillus niger, Penicillium citrinum, Cladosporium harbarum and chaetomium globosum. The data set can be described thus: Degree of growth inhibition of fungi on treated beach plates (Example 25). Further details: scale not given here. Particulars: numerical rating, 2 weeks. The class given is cell-based. The procedure, abridged:
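Beech plates 5 cm square and 5 mm thick were dipped for 2 min in emulsifiable concentrate diluted 400- and 800-fold in water, then dried 24 h at room temperature. Plates were set on agar, sprayed with fungal spore suspensions and incubated 2 weeks at 28 °C and 95% humidity; growth inhibition was scored on a numerical rating.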

Data set [14] has as its system Fusarium wilt of cucumber. The data set can be described thus: Exterminating test on Fusarium wilt of cucumber (Experimental Example 4). The class given is in vivo, Fusarium oxysporum f, cucumerinum. To be noted: 500 ppm, soil drench 100 ml per pot, two weeks. The essentials:
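Pots of steam-sterilized soil mixed with 20 g infested soil, sown with 18 cucumber seeds (Tokiwazibai), drenched with 100 ml aqueous suspension of 80% wettable powder. Benlate 50% wettable powder run as control. Disease scored two weeks after planting as percentage of healthy seedlings.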

Data set [15] deals with Cladosporium cucumerinum (cucumber scab). The data set can be described thus: Exterminating test on cucumber scab (Experimental Example 2). It is filed as in vivo. The arrangement: scale not given here. Particulars: 500 ppm, 5 days after inoculation. As to the method:
Exterminating test on cucumber scab
as §3
70% wettable powder of 1,2-bis (3-methoxy carbonyl-2-thioureid) benzene (hereinafter referred to as "thiophanate methyl") on the market.
75% wettable powder of ethylene bis (dithiocarbamic acid) manganese (hereinafter referred to as "maneb") on the market. After 5 days of the inoculation, degrees attached by the pathogen were observed and the results were shown in Table 3 with an "Infected Index". The "Infected Index" was calculated as follows: [formula] A : Number of leaves which were killed by hard attack B : Number of leaves severely attacked
C : number of leaves slightly attacked
D : number of healthy leaves

The test system of another data set is green algae. The data set can be described thus: Degree of propagation on slime test boards (Example 27). The class given is cell-based. To be noted: same method, shaking culture for 2 days. On the procedure:
Zero point zero two (0.02) part of active compounds in the form of 10% water soluble concentrate which was prepared by Example 23 was added into 100 parts of Waxman's liquid medium. Peices of Wood iron (hereafter referred to as the slime test boards) were soaked into the Waxman's liquid medium. The bacteria which were gathered from circular water system were inoculated upon the Waxman's liquid medium and incubated at 27°-34° C by shaking culture for 2 days. The degree of propagation of the bacteria on the slime test boards was examined.
Thegrowth-inhibiting activity of active compounds against the fungi and the green algae was also examined by the same method as mentioned above.
The degree of propagation of the bacteria, fungi or green algae on the test boards is defined in terms of the following symbols.

Data set [16] concerns Penicillium Citrinum. The data set can be described thus: Minimum inhibitory concentration, dilution methods (Example 14). It is filed as cell-based. Particulars: (1) potato-dextrose agar dilution method. The source says:
(§4) Bacteriocidal activity and fungicidal activity of the active compounds of the present invention were examined by potato-dextrose agar dilution method, [2] waxman's liquid medium dilution method or [3] glucose bouillon medium dilution method. The results are shown in Table 4 below as the minimum inhibitory concentration (the minimum concentration of active compound found to produce 100% control of the test bacteria and fungi).

For data set [17], the system named is Aspergillus niger. Described as above. Particulars: (1) potato-dextrose agar dilution method. The class given is cell-based.
From the text: as §4

Data set [18] deals with Staphylococcus aureus. The data set is described as above. The class given is cell-based. Particulars: (3) glucose bouillon medium dilution method.
From the text: as §4

Data set [19] deals with Cladosporium harbarum. The description is as above. The class given is cell-based. Particulars: (1) potato-dextrose agar dilution method.
From the text: as §4

The test system of data set [20] is Escherichia coli. The data set is described as above. The class given is cell-based. To be noted: (3) glucose bouillon medium dilution method.
From the text: as §4

The test system of data set [21] is Bacillus subtilis. The data set is described as above. The class given is cell-based. Particulars: (3) glucose bouillon medium dilution method.
From the text: as §4

Data set [22] relates to Aspergillus niger, Penicillium citrinum, Cladosporium harbarum and chaetomium globosum. The data set can be described thus: Degree of growth inhibition of fungi on treated beach plates (Example 17). It is filed as cell-based. Particulars: numerical rating, 2 weeks. The arrangement: scale not given here. As to the method:
The emulsifiable concentrates which were prepared by Example 10 were diluted with water 400 times and 800 times to form emulsions.
The square plates of beach of which a side was 5 cm long and thickness was 5 mm were dipped into the emulsion for 2 minutes and dried for 24 hours at room temperature.
The square plates were placed on the surface of agar plates. The suspensions which contained spores of Aspergillus niger, Penicillium citrinum, Cladosporium harbarum and chaetomium globosum were respectively sprayed on the agar plates and the square plates.
The test fungi were cultivated in the incubator at the humidity of 95% and the temperature of 28° C for 2 weeks.
The degree of growth inhibition is defined in terms of the following numerical ratings.

Data set [23] has as its system seedling blight of rice plant (pathogen Fusarium sp. and Rhizoctonia sp.). The data set can be described thus: Exterminating test on seedling blight of rice plant (Experimental Example 1). The class given is in vivo. Particulars: 0.25g/box a.i., 5% dust mixed with soil. The essentials:
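Pathogen-contaminated nursery soil (Fusarium sp., Rhizoctonia sp.) mixed with 5% compound dust at 5 g per box; Nihonbare rice sown, grown 7 days at 17° C in lighting chamber, then moved to field. Assessed 10 days later as percentage of healthy seedlings; commercial 4% hydroxyisoxazol dust run as control.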

For `O=C(NC=C(Cl)Cl)c1cc(Br)ccc1[O-].O=C(NC=C(Cl)Cl)c1cc(Br)ccc1[O-].[Zn+2]` [compound 25], the “width of the region of growth-inhibition” value was 5 mm with Penicillium Citrinum [1], 6 mm in the data set with Aspergillus niger [2], 6 mm in the data set with Bacillus subtilis [3] and 6 mm in the data set on Staphylococcus oureus. Also, the Minimum inhibitory amount in the data set with Penicillium Citrinum [4] turned out to be 20 µg/mL; in the data set with Aspergillus niger [5], 20 µg/mL; in the data set with Staphylococcus aureus [6] it was 5 µg/mL; in the data set on Cladosporium harbarum [7], 10 µg/mL; in the data set on Escherichia coli [8], 60 µg/mL; with Bacillus subtilis [9], 5 µg/mL. The “Effect Index” value in [10] was found to be 80.6. Further, the Phytotoxicity result (in data set [11]; with summer orange seedlings) was “Nil” throughout. Besides, the “Percentage of healthy seedlings” value is listed as 80% in [12] and 49.5% in data set [14]. The “Degree of growth inhibition” value in [13] (0.0125 %) was determined as 2; in data set [13] (0.025 %), 3. In addition, in data set [15], the “Infected Index” value is reported as 12.1. The Degree of propagation result in the data set with green algae is given as “+ (the area of propagation is 1-25% on the slime test boards.)”.
As to `O=C(NC=C(Cl)Cl)c1ccccc1[O-].O=C(NC=C(Cl)Cl)c1ccccc1[O-].[Cu+2]` [compound 26], the “Effect Index” value in data set [10] was determined as 47.5. Further, the “Percentage of healthy seedlings” value stood at 100% in data set [12] and 58.0% in data set [14]. Also, the minimum inhibitory concentration was determined as 10 mc g/ml in the data set with Penicillium Citrinum [16]; 10 mc g/ml in the data set on Aspergillus niger [17]; 5 mc g/ml in the data set on Staphylococcus aureus [18]; 5 mc g/ml in the data set on Cladosporium harbarum [19]; 60 mc g/ml in the data set on Escherichia coli [20]; 5 mc g/ml in the data set on Bacillus subtilis [21]. Also, in the data set on summer orange seedlings, the Phytotoxicity result was “Nil”. Besides, the “Degree of growth inhibition” value in data set [22] (0.0125 %) and in [22] (0.025 %) was 3 each time.
As for `O=C(NC=C(Cl)Cl)c1cc(Br)ccc1[O-].O=C(NC=C(Cl)Cl)c1cc(Br)ccc1[O-].[Mn+2]` [compound 29], the Minimum inhibitory amount in the data set on Penicillium Citrinum [4] stood at 20 µg/mL; in the data set with Aspergillus niger [5] it was 20 µg/mL; with Staphylococcus aureus [6], 10 µg/mL; with Cladosporium harbarum [7], 10 µg/mL; with Escherichia coli [8], 60 µg/mL; with Bacillus subtilis [9], 5 µg/mL. In addition, in data set [10], the “Effect Index” value was 56.2. The “Percentage of healthy seedlings” value in data set [12] is 55%; in [14], 57.5%; in data set [23] it was 69.8%. The Phytotoxicity result in the data set on summer orange seedlings was “Nil”. In addition, the “Degree of growth inhibition” value is recorded as 2 in data set [13] (0.0125 %) and 3 in [13] (0.025 %).
